Measurements from PMC10535741, “Styrylpyridinium Derivatives for Fluorescent Cell Imaging” (Pharmaceuticals, 2023).

Test system: C6 (rat glioma)
Assay: in vitro
Assay type: cell-based
Text: For selected compounds, 6a–6f, we performed a determination of the cytotoxicity in a wider variety of cancer and non-cancerous cell lines (see Table S2, Supplementary Materials) in order to learn the characteristic features of selectivity or the similarity of biological properties.
The HT-1080 (human connective tissue fibrosarcoma, ATCC® CCL-121™), MH-22A (mouse hepatocarcinoma, ECACC Cat. No. 96121721), A-549 (human lung carcinoma, ATCC® CCL-185™), NIH3T3 (Swiss Albino mouse embryo fibroblast, ECACC Cat. No. 93061524), Hek293 (human embryonic kidney, ATCC® CRL-1573™), BHK-21 (Syrian hamster kidney, ATCC® CCL-10™), A-431 (human epidermoid carcinoma, ATCC® CRL-1555™), Saos-2 (human osteosarcoma, ATCC® HTB-85™), HeLa (human epitheloid cervix carcinoma, ATCC® CCL-2™), U937 (human myeloid leukaemia, ATCC® CRL-1593.2™), C6 (rat glioma, ATCC® CCL-107™), and B16-F10 (murine melanoma, ATCC® CRL-6475™) cell lines were obtained from the American Type Culture Collection (ATCC) and European Collection of Authenticated Cell Cultures (ECACC).
HT-1080, MH-22A, A-549, NIH3T3, BHK-21, A-431, HeLa, and B16-F10 cells were cultured in Dulbecco’s Modified Eagle’s Medium (DMEM) with 2 mM glutamine and 10% foetal bovine serum (FBS). Hek293 cells were cultured in Eagle’s Minimum Essential Medium with 10% foetal bovine serum. U937 cells were cultured in RPMI-1640 Medium with 2 mM glutamine and 10% foetal bovine serum. C6 cells were cultured in Ham’s F12 Medium with 2 mM glutamine and 10% foetal bovine serum. Saos-2 cells were cultured in McCoy’s 5a Medium with 2 mM glutamine and 10% foetal bovine serum. The cells were incubated at 37 °C with 5% CO2, 95% air, and complete humidity. Once ~90% confluence was reached, they were detached using 0.05% trypsin/EDTA and counted. The cells were plated at optimally determined densities for the logarithmic phase of growth. These cells were then suspended at a concentration of 4000 cells/well for HT-1080, MH-22A, A-549, NIH3T3, BHK-21, A-431, HeLa, B16-F10, Hek293, and Saos-2 cells and a concentration of 9000 cells/well for U937, C6, Hek293, and GM08402 cells and added onto a 96-well plate. For background absorption, some wells remained cell free, i.e., as a blank control. Cells were incubated for 72 h at 37 °C and 5% CO2 where they were exposed to a media containing serial dilutions of the investigated compounds (n = 3). Cell viability was measured using the 3-(4,5-dimethylthiazol-2-yl)-2,5-diphenyl-tetrazolium bromide (MTT) assay. In brief, after incubating with compounds, the culture medium was removed and fresh medium with 0.2 mg/mL MTT was added to each well of the plate. After incubation (3 h, 37 °C, 5% CO2), the medium with MTT solution was removed and replaced with 200 µL DMSO and 25 µL Sorenson’s glycine buffer (glycine 0.1 M, NaCl 0.1 M, pH: 10.5 with 0.1 M NaOH). The plate was shaken for 15 min at room temperature and the optical density (OD) of the wells was determined using a multichannel spectrophotometer (Thermo Scientific Multiskan EX) at 540 nm. The quantity of the control cells was taken in calculations as 100%. The IC50 value was calculated using the program Graph Pad Prism® 3.0. […]

Compound: CCCCCCCCCCCCCCCC[n+]1ccc(C=Cc2cc(OC)c(OC)c(OC)c2)cc1.[Br-] [Compound 6b]
- Cytotoxicity IC50 C6: 1.23 µg/mL
